# Reference: patent US4994473A, “Pyridyl containing insecticides” (ICI Americas Inc., priority 1988, dated 1991)
# Experiments:
# Heliothis virescens = test: Tobacco budworm egg dip test; format: in vivo, Tobacco Budworm Heliothis virescens (Fabricius); conditions: 2-day old eggs (TBW-E), percent of test compound in solution
# Procedure: (§1) The compounds in Table I above were tested for insecticidal activity using the following testing procedures. LC50 values, based on the results of these tests and calculated according to dosage-mortality curves, are expressed in Table II.
# Tobacco Budworm Heliothis virescens (Fabricius)
# Eggs: Paper towel patches of 2-day old eggs of the tobacco budworm were dipped in acetone solutions of the test compound and placed in petri dishes containing a portion of larval rearing medium. Treated eggs were maintained at 78° F. and mortality was recorded after all control eggs had hatched and the young larvae were feeding on the media. Test concentrations ranged from 0.1% downward. The LC-50 value is expressed below in Table II under the heading "TBW-E" in terms of percent of the test compound in the solution.
# Musca domestica = test: Housefly contact test, mortality after 48 hours; format: in vivo, Housefly Musca domestica; conditions: μg of the test compound per 25 female flies
# Procedure: as §1
# The test compound was diluted in acetone and aliquots pipetted onto the bottom of aluminum dishes. To ensure even spreading of the chemical on the bottom of the dishes, 1 ml of acetone containing 0.01% peanut oil was also added to each dish. After all solvents had evaporated, the dishes were placed in circular cardboard cages containing 25 female houseflies, 1-2 days old. The cages were covered on the bottom with cellophane and on the top with tulle netting, and each contained a sugar-water saturated cotton plug for maintenance of the flies. Mortality was recorded after 48 hours. Test levels ranged from 100 μg/25 female houseflies downward. The LC-50 value is expressed below in Table II under the heading "HF", in terms of μg of the test compound per 25 female flies.
# Trichoplusia ni = test: Cabbage looper larvae leaf-dip test; format: in vivo, Cabbage Looper Trichoplusia ni (Hubner); conditions: second instar larvae, percent of test compound in solution, 3-5 days
# Procedure: as §1
# Cabbage Looper Trichoplusia ni (Hubner)
# The test compound was diluted in a 50--50 acetone-water solution Cotyledons of hyzini squash (Calabacita abobrinha), approximately 1×1.5 inches, were immersed in the test solutions for 2-3 seconds and placed on a wire screen to dry. The dried leaves were p1aced in petri dishes containing a moistened piece of filter paper and infested with 5 secondinstar cabbage looper larvae. The dishes were placed in a high humidity chamber. Mortality of the larvae was recorded 3-5 days later. Test concentrations ranged from 0.1% downward. The LC-50 value is expressed below in Table II under the heading "CL" in terms of percent of the test compound in solution.
# Aphis fabae = test: Black bean aphid spray test on nasturtium plants, mortality after 48 hours; format: in vivo, Black Bean Aphid Aphis fabae (Scop.); conditions: mixed ages, percent of test compound in sprayed solution
# Procedure: as §1
# Black Bean Aphid Aphis fabae (Scop.)
# Nasturtium plants (Tropaeolum sp.) approximately 5 cm tall, were transplanted into sandy loam soil in small cups and infested with 25-50 black bean aphids of mixed ages. Twenty-four hours later they were sprayed to the point of runoff with 50--50 acetone-water solutions of the test compound. Treated plants were held in the greenhouse and mortality was recorded after 48 hours. Test concentrations ranged from 0.05% downward. The LC-50 value is expressed below in Table II under the heading "BA" in terms of percent of the test compound in the sprayed solution.
# Tetranychus urticae = test: Two-spotted mite acaricidal test on pinto bean plants; format: in vivo, two-spotted mite Tetranychus urticae (Koch); conditions: percent concentration in solution, 5-7 days; for LC50 2-SM A: adults; for LC50 2-SM E: eggs
# Source text: Acaricidal Evaluation Test
# The two-spotted mite (2SM) [Tetranychus urticae (Koch)]was employed in tests for miticides. The test procedure was as follows:
# Pinto bean plants (Phaseolus sp.) approximately 10 cm tall, were transplanted into sandy loam soil in small cups and thoroughly infested with two-spotted mites of mixed ages and sexes. Twenty-four hours later the infested plants were inverted and dipped for 2-3 seconds in 50--50 acetone-water solutions of the test compound. Treated plants were held in the greenhouse, and 5-7 days later mortality was determined for both adult mites and the nymphs hatching from eggs which were on the plants at the time of treatment. Test concentrations ranged from 0.05% downward. The LC-50 value is expressed below in Table II under the headings "2SM-A" (i.e., adults) and "2SM-E" (i.e. eggs) in terms of percent concentration of the test compound in the solution.
# [1] = test system: Diabrotica undecimpunctata undecimpunctata; test: Western spotted cucumber beetle larvae soil test; format: in vivo; conditions: Diabrotica eggs/larvae; ppm of the test compound in the soil
# Procedure: as §1
# Western Spotted Cucumber Beetle Larvae Diabrotica undecimpunctata undecimpunctata (Mannherheim)
# Ten grams of moist potting soil was placed in a plastic cup. The test compound was dissolved in acetone. A 0.05 ml aliquot of the test sample, diluted to the desired concentration, was added to the soil. The cup was capped and the soil was mixed on a vortex mixer for approximately 15 seconds. An indentation was made on the surface of the soil and approximately 50 Diabrotica eggs were added. The eggs were covered with soil and maintained at room temperature (approximately 70° F. or 21° C.). Four days later a section of Romaine lettuce (Latuca sativa) leaf was placed in the treated cups. One week later the cups were examined for live larvae. Test concentrations ranged from 25 ppm downward. The LC-50 value is expressed below in Table II under the heading "Diabrotica" in terms of ppm of the test compound in the soil.
compound,measurement,setting,value
"CC(C)C(=Nc1ccc(Cl)nc1)OCc1cccc(Oc2ccccc2)c1 [Compound 1, N-(6-Chloro-3-pyridyl)-0-(3-phenoxybenzyl)isobutyrylimidate]",LC50 TBW,Heliothis virescens,0.04%
same,LC50 HF,Musca domestica,5.5 µg
same,LC50 CL,Trichoplusia ni,0.005%
same,LC50 BA,Aphis fabae,0.001%
same,LC50 2-SM A,Tetranychus urticae,> 0.05%
same,LC50 2-SM E,Tetranychus urticae,> 0.05%
same,LC50 Diabrotica,[1],> 25 ppm
CC(C)C(=Nc1ccc(Cl)nc1Cl)OCc1cccc(Oc2ccccc2)c1 [Compound 2],LC50 TBW,Heliothis virescens,0.075%
same,LC50 HF,Musca domestica,18 µg
same,LC50 CL,Trichoplusia ni,0.0027%
same,LC50 BA,Aphis fabae,0.003%
same,LC50 2-SM A,Tetranychus urticae,> 0.05%
same,LC50 2-SM E,Tetranychus urticae,> 0.05%
same,LC50 Diabrotica,[1],> 25 ppm
COc1ccc(N=C(OCc2cccc(Oc3ccccc3)c2)C(C)C)cn1 [Compound 3],LC50 TBW,Heliothis virescens,> 0.1%
same,LC50 HF,Musca domestica,7 µg
same,LC50 CL,Trichoplusia ni,0.0075%
same,LC50 BA,Aphis fabae,0.003%
same,LC50 2-SM A,Tetranychus urticae,> 0.05%
same,LC50 2-SM E,Tetranychus urticae,> 0.05%
same,LC50 Diabrotica,[1],> 25 ppm
CC(C)C(=Nc1ccc(C(F)(F)F)cn1)OCc1cccc(Oc2ccccc2)c1 [Compound 4],LC50 TBW,Heliothis virescens,> 0.1%
same,LC50 HF,Musca domestica,42 µg
same,LC50 CL,Trichoplusia ni,0.008%
same,LC50 BA,Aphis fabae,0.05%
same,LC50 2-SM A,Tetranychus urticae,> 0.05%
same,LC50 2-SM E,Tetranychus urticae,> 0.05%
same,LC50 Diabrotica,[1],> 25 ppm
CC(C)C(=Nc1ccc(F)nc1)OCc1cccc(Oc2ccccc2)c1 [Compound 5],LC50 TBW,Heliothis virescens,0.09%
same,LC50 HF,Musca domestica,8 µg
same,LC50 CL,Trichoplusia ni,0.008%
same,LC50 BA,Aphis fabae,0.003%
same,LC50 2-SM A,Tetranychus urticae,> 0.05%
same,LC50 2-SM E,Tetranychus urticae,> 0.05%
same,LC50 Diabrotica,[1],> 25 ppm
CC(C)C(=Nc1c(F)c(F)nc(F)c1F)OCc1cccc(Oc2ccccc2)c1 [Compound 6],LC50 TBW,Heliothis virescens,> 0.1%
same,LC50 HF,Musca domestica,> 100 µg
same,LC50 CL,Trichoplusia ni,0.004%
same,LC50 BA,Aphis fabae,> 0.05%
same,LC50 2-SM A,Tetranychus urticae,> 0.05%
same,LC50 2-SM E,Tetranychus urticae,> 0.05%
same,LC50 Diabrotica,[1],> 25 ppm
Clc1ccc(N=C(OCc2cccc(Oc3ccccc3)c2)C2CC2)cn1 [Compound 7],LC50 TBW,Heliothis virescens,> 0.1%
same,LC50 HF,Musca domestica,> 100 µg
same,LC50 CL,Trichoplusia ni,0.022%
same,LC50 BA,Aphis fabae,> 0.05%
same,LC50 2-SM A,Tetranychus urticae,> 0.05%
same,LC50 2-SM E,Tetranychus urticae,> 0.05%
same,LC50 Diabrotica,[1],> 25 ppm
Cc1cc(N=C(OCc2cccc(Oc3ccccc3)c2)C(C)C)no1 [Compound 8],LC50 TBW,Heliothis virescens,> 0.1%
same,LC50 HF,Musca domestica,> 100 µg
same,LC50 CL,Trichoplusia ni,0.1%
same,LC50 BA,Aphis fabae,> 0.05%
same,LC50 2-SM A,Tetranychus urticae,> 0.05%
same,LC50 2-SM E,Tetranychus urticae,> 0.05%
same,LC50 Diabrotica,[1],> 25 ppm
CC(C)(Cl)C(=Nc1nnc(C(F)(F)F)s1)OCc1cccc(Oc2ccccc2)c1 [Compound 9],LC50 TBW,Heliothis virescens,> 0.1%
same,LC50 HF,Musca domestica,> 100 µg
same,LC50 CL,Trichoplusia ni,0.035%
same,LC50 BA,Aphis fabae,> 0.05%
same,LC50 2-SM A,Tetranychus urticae,> 0.05%
same,LC50 2-SM E,Tetranychus urticae,> 0.05%
same,LC50 Diabrotica,[1],> 25 ppm
COC(=O)c1ccc(N=C(OCc2cccc(Oc3ccccc3)c2)C(C)C)o1 [Compound 14],LC50 TBW,Heliothis virescens,> 0.1%
same,LC50 HF,Musca domestica,> 100 µg
same,LC50 CL,Trichoplusia ni,0.01%
same,LC50 BA,Aphis fabae,> 0.05%
same,LC50 2-SM A,Tetranychus urticae,> 0.05%
same,LC50 2-SM E,Tetranychus urticae,> 0.05%
same,LC50 Diabrotica,[1],> 25 ppm
COc1ccc(N=C(OCc2cccc(Oc3ccccc3)c2)C2CC2)cn1 [Compound 15],LC50 TBW,Heliothis virescens,> 0.1%
same,LC50 HF,Musca domestica,58 µg
same,LC50 CL,Trichoplusia ni,0.05%
same,LC50 BA,Aphis fabae,> 0.05%
same,LC50 2-SM A,Tetranychus urticae,> 0.05%
same,LC50 2-SM E,Tetranychus urticae,> 0.05%
same,LC50 Diabrotica,[1],> 25 ppm
CCCCc1nc2ccc(N=C(OCc3cccc(Oc4ccccc4)c3)C(C)C)cc2o1 [Compound 26],LC50 TBW,Heliothis virescens,> 0.1%
same,LC50 HF,Musca domestica,> 100 µg
same,LC50 CL,Trichoplusia ni,0.004%
same,LC50 BA,Aphis fabae,0.05%
same,LC50 2-SM A,Tetranychus urticae,> 0.05%
same,LC50 2-SM E,Tetranychus urticae,> 0.05%
CC(C)C(=Nc1ccc2nc(C(C)C)oc2c1)OCc1cccc(Oc2ccccc2)c1 [Compound 27],LC50 TBW,Heliothis virescens,> 0.1%
same,LC50 HF,Musca domestica,> 100 µg
same,LC50 CL,Trichoplusia ni,0.0035%
same,LC50 BA,Aphis fabae,> 0.05%
same,LC50 2-SM A,Tetranychus urticae,> 0.05%
same,LC50 2-SM E,Tetranychus urticae,> 0.05%
CC(C)C(=Nc1ccc2nc(-c3ccccc3)oc2c1)OCc1cccc(Oc2ccccc2)c1 [Compound 28],LC50 TBW,Heliothis virescens,> 0.1%
same,LC50 HF,Musca domestica,> 100 µg
same,LC50 CL,Trichoplusia ni,0.04%
same,LC50 BA,Aphis fabae,> 0.05%
same,LC50 2-SM A,Tetranychus urticae,> 0.05%
same,LC50 2-SM E,Tetranychus urticae,> 0.05%
same,LC50 Diabrotica,[1],> 25 ppm
CC(C)C(=Nc1ccc(Cl)nc1)SCc1cccc(Oc2ccc(F)cc2)c1 [Compound 29],LC50 TBW,Heliothis virescens,> 0.1%
same,LC50 HF,Musca domestica,> 100 µg
same,LC50 CL,Trichoplusia ni,0.025%
same,LC50 BA,Aphis fabae,> 0.05%
same,LC50 2-SM A,Tetranychus urticae,> 0.05%
same,LC50 2-SM E,Tetranychus urticae,> 0.05%
same,LC50 Diabrotica,[1],> 25 ppm
CC(C)C(=Nc1ccc(Cl)nc1)OCc1cccc(Oc2ccc(Cl)cc2)c1 [Compound 30],LC50 TBW,Heliothis virescens,0.1%
same,LC50 HF,Musca domestica,15 µg
same,LC50 CL,Trichoplusia ni,0.0007%
same,LC50 BA,Aphis fabae,> 0.05%
same,LC50 2-SM A,Tetranychus urticae,> 0.05%
same,LC50 2-SM E,Tetranychus urticae,> 0.05%
same,LC50 Diabrotica,[1],> 25 ppm
CCOc1ccc(N=C(OCc2cccc(Oc3ccccc3)c2)C(C)C)cn1 [Compound 41],LC50 TBW,Heliothis virescens,> 0.1%
same,LC50 HF,Musca domestica,< 100 µg
same,LC50 BA,Aphis fabae,> 0.05%
same,LC50 2-SM A,Tetranychus urticae,> 0.05%
same,LC50 2-SM E,Tetranychus urticae,> 0.05%
same,LC50 Diabrotica,[1],> 25 ppm
